Drawing on US4902800A, “1-Substituted-4-pyrrolidinopiperidines as inhibitors of interleukin 1” (American Home Products Corporation, priority 1988, dated 1990), this text covers inhibition for 2 compounds.

This assay has as its system IL 1-induced release of neutral protease from rabbit articular chondrocytes. Description: Inhibition of IL 1-induced release of neutral protease from rabbit articular chondrocytes (azocoll degradation). The format is cell-based, rabbit (New Zealand White). The following applies: Oryctolagus cuniculus, Chondrocyte, test compound 10 min. prior to human IL 1, 24 h after IL 1 stimulation, read-out: % Inhibition (I.S.D.). As for the experimental part: The ability of the compounds of the inventions to inhibit interleukin 1 is measured by the ability of the test compounds to inhibit the IL 1-induced release of neutral protease from rabbit articular chondrocytes.
Male New Zealand White rabbits are anesthetized with 50 mg/kg of ketamine (i.m.) and killed by an intracardiac injection of 3 mls. of Nembutal. The knee joints of both legs are resected and the articular surfaces are exposed. Cartilage slices are obtained using scalpel and are placed in a tissue culture dish (100 mm diameter) containing 10 mls of Hank's balanced salt solution (HBSS). The chondrocytes within the cartilage slices are then liberated by a series of enzyme digestions. The slices are incubated for 10 min. at 37° C. in 0.05% hyaluronidase (Sigma H-3884), rinsed with HBSS and incubated with 0.2% trypsin (Sigma T-2395) for 10 min. at 37° C. The slices are rinsed again and incubated for 10 mins. at 37° C. with 1.2% collagenase (Sigma C-5138). The slices are then rinsed again with HBSS and resuspended in 10 ml of Ham's F-12 medium containing 10% fetal bovine calf serum (FCS) and 0.2% collagenase and incubated overnight at 37° C. in a 5% CO2 incubator. The next day, the medium containing the digested cartilage fragments and liberated chondrocytes is transferred to a 15 ml centrifuge tube and the cells are collected by centrifugation and washed twice and resuspended in Ham's F-12 medium. The cells are then plated into 24-well tissue culture plates (2×10^5 cells/well) and incubated at 37° C. until confluent (usually 4-6 days).
The confluent chondrocytes are rinsed twice with serum-free Ham's F-12 medium and 1 ml is added to each well. Fifty μl of purified human IL 1 (100 Units/ml; Genzyme Corporation, Boston, MA) is then added to stimulate these cells to secrete neutral protease. To measure drug effects, the cells are treated with test compound 10 min. prior to addition of IL 1. The standard screening dose is 10 μM. Twenty-four hours after IL 1 stimulation, supernatant fluids are collected and assayed for neutral protease activity.
The neutral protease activity of chondrocyte supernatant fluids is determined by their ability to degrade an insoluble protease substrate, azocoll (Sigma). Supernatants are treated for 10 min. at room temperature with 350 μM p-aminophenylmercuric acetate to activate the latent enzyme. Three hundred μl of supernatant is then mixed with 500 μl of a 20 mg/ml suspension of azocoll and incubated at 37° C. for 18-24 hrs. with gentle rocking. The mixtures are centrifuged and the amount of substrate hydrolyzed is determined by measuring the absorbance of the supernatant at 520 nm.
Drug effects are calculated as the % change in enzyme activity (absorbance)by supernatants from drug-treated chondrocytes relative to enzyme activity of supernatants from vehicle-treated chondrocytes as follows: [formula]

Structures are written as SMILES.

As to `N#Cc1ccc(N2CCC(N3CCCC3)CC2)cc1` [Example 1, 4-[4-(1-Pyrrolidinyl)-1-piperidinyl]benzonitrile], the inhibition at 0.1 µM is 48%, the inhibition at 1 µM was determined as 57% and the inhibition at 10 µM is 26%.

As for `CS(=O)(=O)c1ccc(N2CCC(N3CCCC3)CC2)cc1` [Example 2, 1-[4-(Methylsulfonyl)phenyl]-4-(1-pyrrolidinyl)piperidine], the inhibition at 0.1 µM was 22%, the inhibition at 1 µM came to 87% and the inhibition at 10 µM was 91%.
